Results reported in the kinase profiling compilation of Christmann-Franck et al. (2016).

Key:
Assay in all cases: SelectScreen, TR FRET
AKT1 (human) = AKT1 (human) (UniProt P31749)
AURKB (human) = AURKB (human) (UniProt Q96GD4)
CDK5 CDK5R1 p25 (human) = CDK5 CDK5R1 p25 (human) (UniProt Q15078+Q00535)
CHEK1 (human) = CHEK1 (human) (UniProt O14757)
CHEK2 (human) = CHEK2 (human) (UniProt O96017)
EGFR (human) = EGFR (human) (UniProt P00533)
EPHA3 (human) = EPHA3 (human) (UniProt P29320)
GSK3A (human) = GSK3A (human) (UniProt P49840)
GSK3B (human) = GSK3B (human) (UniProt P49841)
IGF1R (human) = IGF1R (human) (UniProt P08069)
IRAK4 (human) = IRAK4 (human) (UniProt Q9NWZ3)
KDR (human) = KDR (human) (UniProt P35968)
MAP2K1 (human) = MAP2K1 (human) (UniProt Q02750)
MAPK1 (human) = MAPK1 (human) (UniProt P28482)
MAPK1 (human), sequence (P28482 whole entry, looked up): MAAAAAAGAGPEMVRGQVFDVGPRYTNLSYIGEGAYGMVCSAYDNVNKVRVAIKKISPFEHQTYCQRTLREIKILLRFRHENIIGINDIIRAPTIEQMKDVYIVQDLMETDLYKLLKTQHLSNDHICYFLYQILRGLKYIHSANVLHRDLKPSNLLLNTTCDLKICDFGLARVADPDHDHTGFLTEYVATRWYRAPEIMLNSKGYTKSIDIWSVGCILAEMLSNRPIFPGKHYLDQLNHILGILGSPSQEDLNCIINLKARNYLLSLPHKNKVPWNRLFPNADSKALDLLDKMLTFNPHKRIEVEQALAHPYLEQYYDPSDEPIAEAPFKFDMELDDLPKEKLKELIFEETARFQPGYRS

KDR (human), sequence (P35968 whole entry, looked up): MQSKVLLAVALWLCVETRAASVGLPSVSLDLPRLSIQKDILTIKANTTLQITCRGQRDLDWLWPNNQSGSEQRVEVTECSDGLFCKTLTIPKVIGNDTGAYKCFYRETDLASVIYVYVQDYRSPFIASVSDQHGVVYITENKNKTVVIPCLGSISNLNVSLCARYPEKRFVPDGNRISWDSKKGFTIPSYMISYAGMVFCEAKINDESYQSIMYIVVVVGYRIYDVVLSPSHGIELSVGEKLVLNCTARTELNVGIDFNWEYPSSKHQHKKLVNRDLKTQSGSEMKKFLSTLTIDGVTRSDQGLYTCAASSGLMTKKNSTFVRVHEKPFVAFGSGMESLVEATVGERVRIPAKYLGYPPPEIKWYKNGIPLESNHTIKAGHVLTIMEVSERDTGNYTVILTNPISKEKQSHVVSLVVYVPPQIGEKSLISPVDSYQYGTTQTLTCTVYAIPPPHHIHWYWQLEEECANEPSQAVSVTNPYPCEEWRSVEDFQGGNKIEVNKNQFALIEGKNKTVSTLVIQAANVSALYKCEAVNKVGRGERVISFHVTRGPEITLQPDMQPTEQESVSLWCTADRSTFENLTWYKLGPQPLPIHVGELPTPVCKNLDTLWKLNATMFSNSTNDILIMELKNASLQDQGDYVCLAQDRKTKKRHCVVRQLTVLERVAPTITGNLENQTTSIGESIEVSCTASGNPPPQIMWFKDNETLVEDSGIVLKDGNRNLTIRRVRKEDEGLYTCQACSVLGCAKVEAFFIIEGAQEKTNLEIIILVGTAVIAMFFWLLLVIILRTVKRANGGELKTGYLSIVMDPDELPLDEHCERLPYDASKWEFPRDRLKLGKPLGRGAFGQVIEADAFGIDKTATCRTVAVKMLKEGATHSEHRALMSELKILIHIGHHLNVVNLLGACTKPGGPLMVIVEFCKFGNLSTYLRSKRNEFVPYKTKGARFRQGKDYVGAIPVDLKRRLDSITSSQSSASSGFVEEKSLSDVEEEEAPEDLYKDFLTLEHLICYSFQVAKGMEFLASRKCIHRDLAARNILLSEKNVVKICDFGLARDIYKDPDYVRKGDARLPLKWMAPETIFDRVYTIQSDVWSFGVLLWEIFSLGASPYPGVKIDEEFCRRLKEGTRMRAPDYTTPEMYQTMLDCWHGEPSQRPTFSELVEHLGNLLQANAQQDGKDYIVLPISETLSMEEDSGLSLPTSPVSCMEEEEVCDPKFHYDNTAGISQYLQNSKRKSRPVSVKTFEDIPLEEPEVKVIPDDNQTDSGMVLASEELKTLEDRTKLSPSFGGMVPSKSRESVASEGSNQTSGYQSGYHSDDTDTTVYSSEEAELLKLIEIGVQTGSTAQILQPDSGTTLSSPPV
IRAK4 (human), sequence (Q9NWZ3 whole entry, looked up): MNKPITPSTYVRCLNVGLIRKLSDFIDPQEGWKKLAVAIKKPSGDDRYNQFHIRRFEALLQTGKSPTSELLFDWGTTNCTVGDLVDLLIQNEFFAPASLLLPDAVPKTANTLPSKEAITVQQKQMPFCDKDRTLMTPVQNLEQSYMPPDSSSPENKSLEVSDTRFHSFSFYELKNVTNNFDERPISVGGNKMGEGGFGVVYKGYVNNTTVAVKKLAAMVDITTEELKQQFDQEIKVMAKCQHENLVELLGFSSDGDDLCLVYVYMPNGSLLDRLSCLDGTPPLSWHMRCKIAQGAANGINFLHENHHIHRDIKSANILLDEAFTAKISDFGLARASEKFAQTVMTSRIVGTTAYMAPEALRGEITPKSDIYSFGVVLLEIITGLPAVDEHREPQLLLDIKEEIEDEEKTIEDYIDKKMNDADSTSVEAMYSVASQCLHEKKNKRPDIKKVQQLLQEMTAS
MAP2K1 (human), sequence (Q02750 whole entry, looked up): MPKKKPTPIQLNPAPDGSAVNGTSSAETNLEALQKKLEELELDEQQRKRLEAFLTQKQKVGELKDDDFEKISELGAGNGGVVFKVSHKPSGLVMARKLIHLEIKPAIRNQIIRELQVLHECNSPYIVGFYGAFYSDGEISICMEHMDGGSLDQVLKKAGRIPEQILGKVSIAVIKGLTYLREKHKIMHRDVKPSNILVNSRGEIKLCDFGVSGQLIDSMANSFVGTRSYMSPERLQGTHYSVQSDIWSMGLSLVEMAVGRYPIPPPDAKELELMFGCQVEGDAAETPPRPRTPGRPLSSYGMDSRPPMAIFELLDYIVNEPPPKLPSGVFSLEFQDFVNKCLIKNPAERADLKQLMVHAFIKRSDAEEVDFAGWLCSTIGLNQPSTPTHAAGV
AKT1 (human), sequence (P31749 whole entry, looked up): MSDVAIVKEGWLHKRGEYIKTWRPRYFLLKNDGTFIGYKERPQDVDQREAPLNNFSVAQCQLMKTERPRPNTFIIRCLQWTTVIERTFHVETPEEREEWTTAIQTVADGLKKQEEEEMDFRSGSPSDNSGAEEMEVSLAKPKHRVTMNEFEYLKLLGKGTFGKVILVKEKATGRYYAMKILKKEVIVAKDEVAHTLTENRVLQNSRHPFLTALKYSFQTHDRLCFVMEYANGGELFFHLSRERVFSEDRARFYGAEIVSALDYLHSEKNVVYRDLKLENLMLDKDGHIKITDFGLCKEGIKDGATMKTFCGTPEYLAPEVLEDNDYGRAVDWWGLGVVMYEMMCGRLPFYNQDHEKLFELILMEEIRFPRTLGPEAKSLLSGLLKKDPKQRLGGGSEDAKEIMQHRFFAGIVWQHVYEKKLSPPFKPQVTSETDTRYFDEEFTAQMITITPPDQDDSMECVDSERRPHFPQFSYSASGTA
EGFR (human), sequence (P00533 whole entry, looked up): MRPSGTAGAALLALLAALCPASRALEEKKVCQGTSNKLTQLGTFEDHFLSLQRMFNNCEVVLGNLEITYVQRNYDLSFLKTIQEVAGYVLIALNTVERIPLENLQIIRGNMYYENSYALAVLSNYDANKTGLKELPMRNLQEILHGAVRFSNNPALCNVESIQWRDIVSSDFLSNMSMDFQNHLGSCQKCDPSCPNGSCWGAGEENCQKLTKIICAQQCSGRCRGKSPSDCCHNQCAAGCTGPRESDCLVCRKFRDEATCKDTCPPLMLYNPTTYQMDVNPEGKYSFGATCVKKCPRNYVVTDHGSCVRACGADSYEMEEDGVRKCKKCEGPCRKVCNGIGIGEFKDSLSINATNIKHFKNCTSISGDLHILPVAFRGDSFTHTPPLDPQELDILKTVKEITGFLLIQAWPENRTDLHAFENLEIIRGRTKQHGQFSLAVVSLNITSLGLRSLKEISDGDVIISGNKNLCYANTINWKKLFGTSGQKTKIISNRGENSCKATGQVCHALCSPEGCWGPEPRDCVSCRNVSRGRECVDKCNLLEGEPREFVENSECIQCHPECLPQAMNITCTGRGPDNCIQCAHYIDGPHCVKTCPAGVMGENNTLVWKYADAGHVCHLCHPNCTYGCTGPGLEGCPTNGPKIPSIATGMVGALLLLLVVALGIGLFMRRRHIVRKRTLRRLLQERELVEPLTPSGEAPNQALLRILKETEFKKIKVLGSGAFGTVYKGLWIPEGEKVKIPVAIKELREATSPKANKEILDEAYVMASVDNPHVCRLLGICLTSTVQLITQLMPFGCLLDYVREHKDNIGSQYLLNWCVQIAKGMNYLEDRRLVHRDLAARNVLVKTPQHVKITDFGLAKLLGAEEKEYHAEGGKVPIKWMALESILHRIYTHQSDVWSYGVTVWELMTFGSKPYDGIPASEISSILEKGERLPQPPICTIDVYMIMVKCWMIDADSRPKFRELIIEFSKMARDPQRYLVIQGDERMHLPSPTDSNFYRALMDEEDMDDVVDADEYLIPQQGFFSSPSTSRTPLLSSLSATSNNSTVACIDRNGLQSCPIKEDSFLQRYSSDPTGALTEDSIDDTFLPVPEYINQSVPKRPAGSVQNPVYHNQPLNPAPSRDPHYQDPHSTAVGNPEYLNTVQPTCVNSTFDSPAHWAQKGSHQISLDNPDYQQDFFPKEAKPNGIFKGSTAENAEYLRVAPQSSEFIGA
GSK3B (human), sequence (P49841 whole entry, looked up): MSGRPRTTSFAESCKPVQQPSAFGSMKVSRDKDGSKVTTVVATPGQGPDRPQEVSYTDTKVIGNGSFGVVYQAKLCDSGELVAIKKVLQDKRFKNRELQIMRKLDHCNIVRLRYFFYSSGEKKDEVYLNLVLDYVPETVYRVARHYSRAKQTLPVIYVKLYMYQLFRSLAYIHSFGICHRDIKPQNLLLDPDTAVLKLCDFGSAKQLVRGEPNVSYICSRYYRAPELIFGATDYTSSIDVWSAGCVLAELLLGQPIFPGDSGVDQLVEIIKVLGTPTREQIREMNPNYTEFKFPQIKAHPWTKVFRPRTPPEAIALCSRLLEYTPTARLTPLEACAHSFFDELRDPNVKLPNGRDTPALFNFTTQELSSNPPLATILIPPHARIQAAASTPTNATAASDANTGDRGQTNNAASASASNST
AURKB (human), sequence (Q96GD4 whole entry, looked up): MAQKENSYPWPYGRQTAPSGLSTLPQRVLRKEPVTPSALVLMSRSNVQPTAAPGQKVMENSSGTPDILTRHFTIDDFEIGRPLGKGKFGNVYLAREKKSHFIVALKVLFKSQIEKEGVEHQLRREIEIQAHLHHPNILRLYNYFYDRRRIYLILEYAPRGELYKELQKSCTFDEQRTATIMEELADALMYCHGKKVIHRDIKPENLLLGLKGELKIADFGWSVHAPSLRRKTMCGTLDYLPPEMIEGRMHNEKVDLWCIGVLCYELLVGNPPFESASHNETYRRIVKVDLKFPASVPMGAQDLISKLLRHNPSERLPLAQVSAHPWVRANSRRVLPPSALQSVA

**Q.** With Cn1cc(-c2cnc3ccc4ccc(CC(=O)NCc5ccccn5)cc4c(=O)c3c2)cn1 as the compound, how does the inhibition (AKT1 (human); compound 0.1 µM) read?
**A.** 17.2%

**Q.** And the inhibition (AKT1 (human); compound 1.0 µM)?
**A.** 5.5%

**Q.** And the inhibition (AKT1 (human); compound 10.0 µM)?
**A.** 9.1%

**Q.** What about the inhibition (AURKB (human); compound 0.1 µM) of the same compound?
**A.** 19.7%

**Q.** What about the inhibition (AURKB (human); compound 1.0 µM) of the same compound?
**A.** 51.8%

**Q.** What about the inhibition (AURKB (human); compound 10.0 µM) of the same compound?
**A.** 96.4%

**Q.** What about the inhibition (CDK5 CDK5R1 p25 (human); compound 0.1 µM) of the same compound?
**A.** 6.6%

**Q.** What about the inhibition (CDK5 CDK5R1 p25 (human); compound 1.0 µM) of the same compound?
**A.** 6.7%

**Q.** And the inhibition (CDK5 CDK5R1 p25 (human); compound 10.0 µM)?
**A.** 14.5%

**Q.** And the inhibition (CHEK1 (human); compound 0.1 µM)?
**A.** 23.2%

**Q.** What about the inhibition (CHEK1 (human); compound 1.0 µM) of the same compound?
**A.** -1.2%

**Q.** And the inhibition (CHEK1 (human); compound 10.0 µM)?
**A.** 14.2%

**Q.** And the inhibition (CHEK2 (human); compound 0.1 µM)?
**A.** 11.8%

**Q.** What about the inhibition (CHEK2 (human); compound 1.0 µM) of the same compound?
**A.** 17.1%

**Q.** What about the inhibition (CHEK2 (human); compound 10.0 µM) of the same compound?
**A.** 43.6%

**Q.** What about the inhibition (EGFR (human); compound 0.1 µM) of the same compound?
**A.** 0.5%

**Q.** What about the inhibition (EGFR (human); compound 1.0 µM) of the same compound?
**A.** 0.6%

**Q.** What about the inhibition (EGFR (human); compound 10.0 µM) of the same compound?
**A.** 7.1%

**Q.** What about the inhibition (EPHA3 (human); compound 0.1 µM) of the same compound?
**A.** -1.7%

**Q.** What about the inhibition (EPHA3 (human); compound 1.0 µM) of the same compound?
**A.** 5.2%

**Q.** And the inhibition (EPHA3 (human); compound 10.0 µM)?
**A.** 16.4%

**Q.** What about the inhibition (GSK3A (human); compound 0.1 µM) of the same compound?
**A.** 8.6%

**Q.** And the inhibition (GSK3A (human); compound 1.0 µM)?
**A.** 12.5%

**Q.** And the inhibition (GSK3A (human); compound 10.0 µM)?
**A.** 65.6%

**Q.** And the inhibition (GSK3B (human); compound 0.1 µM)?
**A.** 7.3%

**Q.** And the inhibition (GSK3B (human); compound 1.0 µM)?
**A.** 8.1%

**Q.** And the inhibition (GSK3B (human); compound 10.0 µM)?
**A.** 64%

**Q.** What about the inhibition (IGF1R (human); compound 0.1 µM) of the same compound?
**A.** 16.4%

**Q.** What about the inhibition (IGF1R (human); compound 1.0 µM) of the same compound?
**A.** 15.3%

**Q.** And the inhibition (IGF1R (human); compound 10.0 µM)?
**A.** 16.7%

**Q.** What about the inhibition (IRAK4 (human); compound 0.1 µM) of the same compound?
**A.** 19.8%

**Q.** What about the inhibition (IRAK4 (human); compound 1.0 µM) of the same compound?
**A.** 25.5%

**Q.** And the inhibition (IRAK4 (human); compound 10.0 µM)?
**A.** 59%

**Q.** What about the inhibition (KDR (human); compound 0.1 µM) of the same compound?
**A.** 20%

**Q.** What about the inhibition (KDR (human); compound 1.0 µM) of the same compound?
**A.** 54.7%

**Q.** What about the inhibition (KDR (human); compound 10.0 µM) of the same compound?
**A.** 93.9%

**Q.** And the inhibition (MAP2K1 (human); compound 0.1 µM)?
**A.** 25.7%

**Q.** What about the inhibition (MAP2K1 (human); compound 1.0 µM) of the same compound?
**A.** 23.8%

**Q.** What about the inhibition (MAP2K1 (human); compound 10.0 µM) of the same compound?
**A.** 13.5%

**Q.** And the inhibition (MAPK1 (human); compound 0.1 µM)?
**A.** 12.7%

**Q.** What about the inhibition (MAPK1 (human); compound 1.0 µM) of the same compound?
**A.** 8.8%

**Q.** And the inhibition (MAPK1 (human); compound 10.0 µM)?
**A.** -8.1%
